Measured values reported in patent publication US11247994B2, “6-dithio-substituted-2′-deoxyguanosine compound, preparation method thereof and use thereof” (ZHEJIANG UNIVERSITY, priority 2018, dated 2022).

Assays:
[1] = system: human liver cancer cells HepG2; test: MTT assay, tumor cell growth inhibition, HepG2; assay type: cell-based; details: 48 hours
From the text: (§1) MTT Assay—Inhibitory Effect of 6-dithio-substituted-2′-deoxyguanosine Derivatives on Tumor Cell Growth
(§2) We measured the tumor cell growth inhibitory activity of candidate compounds by MTT assay. Human tumor cells in logarithmic growth phase were digested with 0.25% pancreatin for a certain time, centrifuged, re-suspended and counted with a blood cell counting plate to prepare a cell suspension, and the cell suspension was adjusted to 1.0×10^4-1×10^5 cells/mL. The cell suspension was inoculated into a 96-well culture plate, 100 μL per well, and cultured in an incubator with saturated humidity, 37° C. and 5% CO2 for 24 hours until the cells completely adhered to the wall. The test compound was diluted to the required concentration with a complete medium, the complete medium of the 96-well culture plate inoculated with human tumor cells was sucked out, a medicament-containing medium was added, 100 μL per well, the final concentration of DMSO was less than 0.1%, and the culture plate was put in an incubator for 48 hours. 10 μl of MTT was added to each well of the 96-well plate, and the culture was continued for 4 h. The culture was stopped and the culture solution in the well was carefully sucked off. 150 μL DMSO was added to each well, and shaken at a low speed for 10 min on a shaking table, so that the crystal was fully dissolved. The absorbance of each well was measured at OD 570 nm of an enzyme-linked immunosorbent assay instrument. At the same time, zeroing wells (the culture medium, MTT, dimethyl sulfoxide) and control wells (cells, a drug dissolution medium with the same concentration, a culture solution, MTT, dimethyl sulfoxide) were set up, and the cell growth inhibitory activity was calculated with the corresponding solvents as the control. 3-6 multiple wells in each group were set up with repetition of several times. Cell viability of control=(Adrug group−Azeroing well)/(Acontrol well−Azeroing well)*100%. Drawing was drawn, the data were fitted into a concentration response curve with a variable slope, and IC50 value was calculated from the curve.

[2] = system: human colon cancer cell line HCT116 subcutaneous transplanted tumor; test: Tumor-bearing test in nude mice, HCT116 subcutaneous transplanted tumor (tumor volume, TUNEL); assay type: in vivo; details: HCT116 model; for Extent of apoptosis in tumor tissue (TUNEL staining, rank order): frozen tumor sections, DAPI and TUNEL, G group = blank; for Inhibitory effect on the growth of subcutaneous transplanted tumor tissue in nude mice (rank order, from slope of tumor volume): compound A 2 mg/kg first 8 times, 10 mg/kg last 4 times, others equimolar, KB = blank
From the text: Tumor-Bearing Test in Nude Mice—Inhibitory Effect of 6-Dithio-Substituted-2′-Deoxyguanosine Derivatives on the Growth of Subcutaneous Transplanted Tumor Tissue in Nude Mice
1) Tumor-Bearing Mouse Model of Human Colon Cancer Cell Line HCT116
(§3) We took human colon cancer cell line HCT116 as the research object, and established a subcutaneous transplanted tumor model of human colon cancer in 32 immunodeficient nude mice. The 24th generation HCT116 cells in logarithmic growth phase were digested with pancreatin to prepare a single-cell suspension, and 1×10^7 cells were inoculated subcutaneously in the right armpit of male nude mice about 5 weeks old. After inoculation, cyclophosphamide (100 mg/kg) was injected intraperitoneally for two consecutive days. […] On the 20th day after colon cancer cell HCT116 was implanted subcutaneously, nude mice were divided into 7 groups by a random number table method, including a test drug group, a positive control group and a blank control group. Specifically, group A: the compound A was administrated; Group B: the compound B was administrated; Group C: the compound C was administrated; Group D: the compound D was administrated; Group E: the compound 6-thio-DG was administrated; Group F: the compound PX-12 was administrated; Group G: blank group, without administration of any compound. Except group C with 3 rats and group G with 4 rats, all other 5 groups had 5 rats, they mice were labeled and injected by tail vein once every two days for 24 days, 12 times, with the dose of compound A being 2 mg/kg for the first 8 times and 10 mg/kg for the last 4 times, and the dosages of other drugs being the same molar weights. The tumor volume was calculated by taking the length of the tumor as the longest diameter and the width as the corresponding vertical diameter, and the tumor volume V=(length×width^2) mm^3/2. 48 hours after the last treatment, blood was taken from the eyes, and then the animals were killed. Blood was centrifuged to get the supernatant, and then blood biochemical analysis was performed. Paraffin embedded sections of fixed tissues were stained with HE. The tumor mass in a frozen tissue was sectioned in a frozen state, and then stained by DAPI and TUNEL to judge the apoptosis of the tumor tissue in nude mice.

[3] = system: human breast cancer cells MCF7; test: MTT assay, tumor cell growth inhibition, MCF7; assay type: cell-based; details: 48 hours
From the text: as §1, §2

TrxR/Trx-1 = biological target: T1, TrxR/Trx-1 (Homo sapiens, UniProt P10599); test: Ellman test, inhibition of TrxR/Trx-1 activity; assay type: biochemical; details: Ellman reaction, 37° C. 30 min, absorbance 412 nm; read-out: IC50, inhibition of TrxR/Trx-1 activity
T1 sequence (P10599 2-105 limits assumed): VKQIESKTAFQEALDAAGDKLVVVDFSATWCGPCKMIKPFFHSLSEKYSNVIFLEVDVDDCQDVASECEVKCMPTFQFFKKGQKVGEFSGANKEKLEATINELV
From the text: Ellman Test—Inhibitory Effect of 6-dithio-substituted-2′-deoxyguanosine Derivative Analogues on TrxR/Trx-1 Activity
A TrxR/TR experiment based on the Ellman reaction was used to determine the inhibitory activity of candidate compounds. Ellman reaction is that 5,5′-dithiobis (2-nitrobenzoic acid) (DTNB) reacts with sulfhydryl (—SH) to form a yellow substance with absorption at 412 nm. The increase of absorption can be equivalent to the decrease of NADPH mediated by TrxR, thus further judging the activity of TrxR/Trx-1. All experiments were carried out on 96-well plates. Before the start of the enzyme reaction, five groups of corresponding test compound stock solutions with different concentrations were prepared. In the TrxR/Trx-1 reaction, a total volume per well was 60 μL, including 100 mM HEPES, 5 mM EDTA (HE buffer, pH 7.5), 1 mM NADPH, 1.0 μM TrxR, 0.8 μM Trx-1, 2.5 mg/mL bovine insulin and the required concentration of compounds to be tested. No compound to be tested was added to the control group. No compound to be tested, TrxR and Trx-1 were added in the blank group. The plate was shaken on an oscillator for 30 seconds to fully mix the reactants. After incubation at 37° C. for 30 min, 100 μL of the prepared mixture containing 6 M guanidine hydrochloride, 50 mm Tris and 10 mm DTNB was added to terminate the reaction. After 15 minutes of incubation, the absorbance was measured at 412 nm. Finally, TrxR/Trx-1 activity %=(Atest−Akb)/(Acontrol−Akb), that is, the relative percentage of TrxR/Trx-1 activity was the activity inhibited by adding 2′-deoxyguanosine derivatives relative to the activity without 2′-deoxyguanosine derivatives. The data were fitted into a concentration response curve with a variable slope, and the IC50 value was calculated from the curve.

[4] = system: human colon cancer cells HCT116; test: MTT assay, tumor cell growth inhibition, HCT116; assay type: cell-based; details: HCT-116, 48 hours
From the text: as §1, §2

[5] = system: human melanoma cells A375; test: MTT assay, tumor cell growth inhibition, A375; assay type: cell-based; details: A-375, 48 hours
From the text: as §1, §2

[6] = Blood biochemical analysis and HE staining of tissues in HCT116 tumor-bearing nude mice; assay type: in vivo; details: tail vein once every two days, 12 times, blood 48 hours after the last treatment
Experimental: as §3

[7] = system: human colon cancer cells HT29; test: MTT assay, tumor cell growth inhibition, HT29; assay type: cell-based; details: HT-29, 48 hours
From the text: as §1, §2

[8] = system: human non-small cell lung cancer A549; test: MTT assay, tumor cell growth inhibition, A549; assay type: cell-based; details: 48 hours
From the text: as §1, §2

[9] = system: human colon cancer cells SW620; test: MTT assay, tumor cell growth inhibition, SW620; assay type: cell-based; details: SW-620, 48 hours
From the text: as §1, §2

[10] = system: human breast cancer cells Bcap37; test: MTT assay, tumor cell growth inhibition, Bcap37; assay type: cell-based; details: 48 hours
From the text: as §1, §2

[11] = system: human gastric cancer cells BGC; test: MTT assay, tumor cell growth inhibition, BGC; assay type: cell-based; details: 48 hours
From the text: as §1, §2

[12] = system: human leukemia cells K562; test: MTT assay, tumor cell growth inhibition, K562; assay type: cell-based; details: 48 hours
From the text: as §1, §2

NCM460 = test: MTT assay, cell growth inhibition, NCM460; assay type: cell-based; details: Homo sapiens, 48 hours, read-out: Tumor cell growth inhibition IC50, NCM460
From the text: as §1, §2

[13] = tail vein once every two days for 24 days

SMILES | IC50 [1] [µM] | Extent of apoptosis in tumor tissue (TUNEL staining, rank order) [2] | Inhibitory effect on the growth of subcutaneous transplanted tumor tissue in nude mice (rank order, from slope of tumor volume) [2, 13] | IC50 (TrxR/Trx-1) [µM] | IC50 [4] [µM] | IC50 [5] [nM] | Alanine aminotransferase [6] [U/L] | Albumin [6] [g/L] | Alkaline phosphatase [6] [U/L] | Aspartate aminotransferase [6] [U/L] | BUN [6] [mmol/L] | Chloride ion [6] [mmol/L] | Creatine kinase [6] [U/L] | Creatinine [6] [µmol/L] | Glucose [6] [mmol/L] | Potassium ion [6] [mmol/L] | Sodium ion [6] [mmol/L] | Total bilirubin [6] [µmol/L] | Total cholesterol [6] [mmol/L] | Total protein [6] [g/L] | further results
Nc1nc2c(ncn2[C@H]2C[C@H](O)[C@@H](CO)O2)c(=S)[nH]1 [Compound 6-thio-dG, 6-thio-2′-deoxyguanosine, reference compound] | < 10 | D group>A group≈B group≈E group (6-thio-dG group)>C group>F group (PX-12 group)>G group (KB group) | D>B≈A≈6-thio-dG>PX-12>C>KB | > 100 | 17.5 | 400 | 44.3 | 29.8 | 49.6 | 172.4 | 11.5 | 120.8 | 2125 | 12.0 | 3.12 | 7.18 | 158.8 | -0.10 | 2.62 | 51.8 | IC50 [3]: > 100 µM; Triglyceride [6]: 1.10 mmol/L; IC50 [7]: 3.04 µM; IC50 [8]: 33.6 µM; IC50 [9]: > 100000 nM; IC50 [10]: > 100 µM; IC50 [11]: > 100 µM; IC50 [12]: 23.3 µM; IC50 (NCM460): > 1 mM
CCC(C)SSc1nc(N)nc2c1ncn2C1C[C@H](O)[C@@H](CO)O1 (some centres unmarked) [Compound A, 6-(sec-butyldithio)-2′-deoxyguanosine] | 10 to 50 | D group>A group≈B group≈E group (6-thio-dG group)>C group>F group (PX-12 group)>G group (KB group) | D>B≈A≈6-thio-dG>PX-12>C>KB | 31.7 | 1.27 | 600 | 33.3 | 24.8 | 36.0 | 153.4 | 10.7 | 113.8 | 1896 | -0.80 | 2.21 | 7.56 | 155.6 | 0.40 | 2.99 | 52.6 | Ability to inhibit the growth of transplanted tumor tissue compared with positive controls ([2]; tail vein once every two days for 24 days, equimolar doses): close to that of the positive control 6-thio-dG and stronger than that of the positive control PX-12; Triglyceride [6]: 0.84 mmol/L; IC50 [7]: 4.55 µM; IC50 [8]: 30.8 µM; IC50 [9]: 210 nM; IC50 [10]: 18.2 µM; IC50 [11]: 6.09 µM; IC50 [12]: 9.88 µM; IC50 (NCM460): > 1 mM
CCC(C)SSc1ncc[nH]1 (centres unmarked) [PX-12, 1-methylpropyl-2-imidazolyl disulfide, reference compound] | 10 to 50 | D group>A group≈B group≈E group (6-thio-dG group)>C group>F group (PX-12 group)>G group (KB group) | D>B≈A≈6-thio-dG>PX-12>C>KB | 2.55 | 34.5 | 2980 | 30.8 | 33.0 | 44.2 | 169.0 | 8.10 | 109.9 | 1434 | 3.20 | 1.47 | 7.64 | 155.8 | -0.90 | 2.53 | 56.9 | IC50 [3]: > 100 µM; Triglyceride [6]: 1.18 mmol/L; IC50 [7]: 3.37 µM; IC50 [8]: 7.43 µM; IC50 [9]: 1680 nM; IC50 [10]: > 100 µM; IC50 [12]: 21.7 µM; IC50 (NCM460): > 1 mM
